In patent US3996228A, “Pyrimidinoaminoethyl ergoline derivatives” (Societa' Farmaceutici Italia S.p.A., priority 1973, dated 1976):
In brackets after ≈: the same amount, converted by molar mass. Where two headings read alike, the source gives them in different places.

Key:
[1] = tested on: isolated guinea pig seminal vescicle; assay: adrenolytic activity in vitro: inhibition of the spasmogen effect caused by adrenaline; type: cell-based; settings: Cavia porcellus, 50% inhibition of spasmogen effect caused by adrenaline
Method: (§1) The compounds of the present invention have a high and prolonged adrenolytic activity and a low toxicity and are therefore useful in therapy. This adrenolytic activity was tested "in vitro" on isolated guinea pig seminal vescicle suspended in physiological solution and "in vivo" on the rat. Table 1 reports the values of concentrations, in γ/ml, which are able to produce a 50% inhibition (IC50) of the spasmogen effect caused by adrenaline and the doses in mg/Kg (ED50) able to reduce by 50% the lethal effects caused by adrenaline after oral (os) and intravenous (i.v.) administration of the compounds in question. Table 1 also reports the LD50 values, both per os and i.v. in rats.

[2] = tested on: lethal effects caused by adrenaline; assay: adrenolytic activity in vivo: reduction of the lethal effects caused by adrenaline; settings: rat, 50% reduction of lethal effects caused by adrenaline
Method: as §1

LD50 (acute toxicity) = settings: rat, in vivo, rats
Method: as §1

hypertensive rat = assay: hypotensive activity on the hypertensive rat; type: in vivo; settings: po, per os, dose which causes a pressure drop of about 30-40 mmHg, read-out: Hypotensive Activity active dose
Method: The hypotensive activity was tested on the hypertensive rat; the reported data being the dose expressed in mg/Kg per os, which causes a pressure drop of about 30-40 mmHg.

[3] = analgesic activity, hot plate test; type: in vivo; settings: for Analgesic Activity Hot Plate, relative to D-propoxyphene: D-propoxyphene = 1
Method: (§2) The analgesic activity was evaluated by means of the hot plate test and the writhing test, the data being given in comparison with morphine and D-propoxyphene.
(§3) In the hot plate and writhing tests, the comparison compounds morphine and D-propoxyphene have been arbitrarily assigned the value of 1.

[4] = analgesic activity, writhing test; type: in vivo
Method: as §2, §3

[5] = iv, i.v., read-out: Adrenolytic Activity "in vivo" ED50 i.v.
[6] = po, per os, read-out: Adrenolytic Activity "in vivo" ED50 os
[7] = morphine = 1, listed as 1,6-dimethyl-8β-[5-amino-2-pyrimidino-aminoethyl]-10α-ergoline

Structure (SMILES) | IC50 [1] [µg/mL] | ED50 [2, 5] [mg/kg] | ED50 [2, 6] [mg/kg] | LD50 (LD50 (acute toxicity); iv, i.v., read-out: LD50 i.v.) [mg/kg] | LD50 (LD50 (acute toxicity); po, per os, read-out: LD50 os) [mg/kg] | ED (30-40 mmHg pressure drop) (hypertensive rat) [mg/kg] | Analgesic Activity Hot Plate, relative to D-propoxyphene [3] | Analgesic Activity Hot Plate, relative to morphine ([3]; morphine = 1) | Analgesic Activity Hot Plate, relative to morphine [3, 7] | Analgesic Activity Writhing, relative to D-propoxyphene ([4]; D-propoxyphene = 1) | Analgesic Activity Writhing, relative to morphine ([4]; morphine = 1) | Analgesic Activity Writhing, relative to morphine [4, 7]
Cc1cnc(NCC[C@@H]2C[C@@H]3c4cccc5c4c(cn5C)C[C@H]3N(C)C2)nc1 [1,6-Dimethyl-8β-[5-methyl-2-pyrimidinoaminoethyl]-10α-ergoline] | 0.5 (≈ 1.33 µM) | 0.07 | 0.5 | 19 | 130 |  |  |  |  |  |  | 
CO[C@]12C[C@@H](CCNc3ncc([N+](=O)[O-])cn3)CN(C)[C@@H]1Cc1cn(C)c3cccc2c13 [1,6-Dimethyl-8β-[5-nitro-2-pyrimidinoaminoethyl]-10α-methoxyergoline] | 0.5 (≈ 1.15 µM) | 0.25 | 0.42 |  | 150 |  |  |  |  |  |  | 
CN1C[C@H](CCNc2ncccn2)C[C@@H]2c3cccc4c3c(cn4C)C[C@H]21 [1,6-dimethyl-8β-[2-pyrimidinoaminoethyl]-10α-ergoline] | 0.001 (≈ 0.00277 µM) | 0.2 | 0.1 | 18 | 100 |  |  |  |  |  |  | 
CN1C[C@H](CCNc2ncc(N)cn2)C[C@@H]2c3cccc4c3c(cn4C)C[C@H]21 [1,6-dimethyl-8β-[5-amino-2-pyrimidinoaminoethyl]-10α-ergoline] |  |  |  |  |  | 10 | 5 | 1 | same activity as morphine | 10 | 1 | same activity as morphine
CO[C@]12C[C@@H](CCNc3ncc(Br)cn3)CN(C)[C@@H]1Cc1cn(C)c3cccc2c13 [1,6-dimethyl-8β-[5-bromo-2-pyrimidinoaminoethyl]-10α-methoxyergoline] | 0.01 (≈ 0.0213 µM) | 0.65 | > 1 |  | 200 |  |  |  |  |  |  | 
COc1cnc(NCC[C@@H]2C[C@@H]3c4cccc5c4c(cn5C)C[C@H]3N(C)C2)nc1 [1,6-dimethyl-8β-[5-methoxy-2-pyrimidinoaminoethyl]-10α-ergoline] |  |  |  |  |  | 10 | 2 | 0.5 |  |  |  | 
